This note sets out measurements from US20030207813A1, “Retroviral protease inhibitor combinations” (priority 1995, published 2003).

Structures are written as SMILES. Values after ≈ are worked out from the molar mass of the structure shown.

The test system of the assay is HIV-1 strain 89-959. Kind of assay: Acute infectivity assay in PHA-activated donor lymphocytes, isolate 89-959. The class given is cell-based. The following applies: Human immunodeficiency virus 1, Lymphocyte, Table 3, footnote marks show values of the same experiment, read-out: Virus Isolate (EC50 ng/mL) 89-959. How it is done:
Approximately 3×10^7 cells are activated for 48 hours with about 3-5 μg/ml PHA in RPMI continuing 10% fetal bovine serum and IL-2 (10 U/ml). Quantitated virus stocks are added to the activated lymphocyte suspension at a multiplicity of infection of about 0.001-0.01. The cell-virus suspension is incubated at 37° C. for 2 hours to allow virus absorption. The residual virus inoculum is removed by centrifugation and the cells are resuspended in RPMI containing 10% FBS and 10 U/ml IL-2. These infected cells are added to the test-article diluted in complete tissue culture medium from a stock (10 mg/ml) in DMSO in 96 well microtiter plates to give about 5×10^5 cells per well per 200 μl. Infected, untreated cells and cells treated with DMSO alone (0.1%) or either AZT or DDI were used as controls. The cultures were examined for syncytia formation on days 7 and 11 post-infection or the supernants tested for reverse transcriptase activity or p24 antigen.
RF represents the HIV-1 strain HIV-LRF and RFR represents a mixture of resistant strains obtained by selection of RF against the compound of Example 1. RFR comprises a mixture of viral strains having protease genotypes of G48V (14/40 clones); G48V, V82A (18/40 clones); G48V, L90S (2/40 clones); G48V, 154T, V82A (1/40 clones); G48M (1/40 clones); G48V, Q61H (1/40 clones); V13I, G48V (1/40 clones); G48V, F53L, V82A (1/40 clones); and G48V, V82A, C95Y (1/40 clones). RFR2 represents a mixture of resistant strains obtained by cloning RFR by three rounds of growth at limiting dilution. RFR2 comprises a mixture of viral strains having protease genotypes of G48V, V82A (13/15 clones); G17E, G48V, V82A (1/15 clones); and G48V, V82A, N37D, N88D (1/15 clones). RFRR represents a mixture of resistant strains obtained by selection of RF against the compounds of Examples 1 and 2 and then cloning by three rounds of growth at limiting dilution. RFRR comprises a mixture of viral strains having protease genotypes of G48V, 154T, L63P, V82A (7/9 clones); G48V, 154T, L63P, V82A, N88S (1/9 clones); and G48V, 154T, L63P, G73M, V82A (1/9 clones). SF162 represents the HIV-1 strain SF-162 and SF162R represents a mixture of resistant strains obtained by selection of SF162 against the compound of Example 1. SF162R comprises a mixture of viral strains having protease genotypes of M461, F53L, L63P, A71V, N88D (2/3 clones); and M46I, F53L, L63P, A71V, N88D, Q92R (1/3 clones). 89-959 represents the HIV-1 strain 89-959 and 89-959R represents a mixture of resistant strains obtained by selection of 89-959 against the compound of Example 2. 89-959R comprises a mixture of viral strains having protease genotypes of N88S (4/5 clones); and D25N, T26A, D30N, D37N, R41K, G73D, R87K, N88S (1/4 clones). NL4 represents the HIV-1 strain HIV-1NL4-3. NL4(G48V) represents a strain having a synthetically generated site-directed mutation in the protease from glycine to valine at amino acid position number 48. NL4(I84V) represents a strain having a synthetically generated site-directed mutation in the protease from isoleucine to valine at amino acid position number 84. NL4(R8Q,M46I) represents a strain having synthetically generated site-directed mutations in the protease from arginine to glutamine at amino acid position number 8 and methionine to isoleucine at amino acid position number 46. NL4(P22-538) represents a mixture of resistant strains obtained by selection of HIV-1NL4-3 against the compound of Example 10 after 22 passages comprising protease genotypes M46I, L63P, A71V, V82F, I84V (4/10); M46I, L63P, V82F, I84V (3/10); and M46I, A71V, V82F, I84V (3/10). NL4(P37-538) represents resistant strains obtained by selection of HIV-1NL4-3 against the compound of Example 10 after 37 passages comprising protease genotype M46I, L63P, A71V, 184A. NL4(538/524) represents resistant strains obtained by selection of NL4(P22-538) against the compound of Example 5 after 24 passages comprising protease genotype M46I, L63P, A71V, 184A. […]
For `CC(C)CN(C[C@@H](O)[C@H](Cc1ccccc1)NC(=O)[C@H](CC(N)=O)NC(=O)c1ccc2ccccc2n1)C(=O)NC(C)(C)C` (relative stereo) [Example 1, [1S-[1R*(R*),2S*]]-N^1-[3-[[[(1,1-dimethylethyl)amino]carbonyl])2-methylpropyl)amino]-2-hydroxy-1-(phenylmethyl)propyl]-2-[(2-quinolinylcarbonyl)amino]-butanediamide], the EC50 was determined as 96 ng/mL (≈ 0.159 µM).
With `CC(C)CCN(C[C@@H](O)[C@H](Cc1ccccc1)NC(=O)[C@H](CC(N)=O)NC(=O)c1ccc2ccccc2n1)C(=O)NC(C)(C)C` (relative stereo) [Example 7, [1S-[1R*(R*),2S*]]-N^1-[3-[[[(1,1-dimethylethyl)amino]carbonyl](3-methylbutyl)amino]-2-hydroxy-1-(phenylmethyl)propyl]-2-[(2-quinolinylcarbonyl)amino]-butanediamide], the EC50 came out at 13 ng/mL (≈ 0.021 µM).
With `CC(C)(C)NC(=O)[C@@H]1CC2CCCC[C@@H]2CN1C[C@@H](O)[C@H](Cc1ccccc1)NC(=O)[C@H](CC(N)=O)NC(=O)c1ccc2ccccc2n1` (stereo in doubt) [Example 6, N-tert-Butyl decahydro-2-[2(R)-hydroxy-4-phenyl-3(S)-[[N-(2-quinolylcarbonyl)-L-asparaginyl]amino]butyl]-(4aR,8aS)-isoquinoline-3(S)-carboxamide], the EC50 came out at 4 ng/mL (≈ 0.00596 µM).
Take `CNCC(=O)N[C@H](C(=O)N[C@@H](Cc1ccccc1)[C@H](O)CN(CCC(C)C)C(=O)NC(C)(C)C)C(C)(C)C` [Example 2, (2R,3S)-3-(N-methylaminoacetyl-L-tert-butylglycinyl)amino-1-(N-isoamyl-N-(tert-butylcarbamoyl))amino-4-phenyl-2-butanol]: the EC50 was 100 ng/mL (≈ 0.187 µM).
In the case of `CC(C)(C)NC(=O)[C@@H]1CN(Cc2cccnc2)CCN1C[C@@H](O)C[C@@H](Cc1ccccc1)C(=O)N[C@H]1c2ccccc2C[C@H]1O` [Example 5, N-(2(R)-Hydroxy-1(S)-indanyl)-2(R)-phenylmethyl-4(S)-hydroxy-5-(1-(4-(3-pyridylmethyl)-2(S)-N′-(t-butylcarboxamido)-piperazinyl))-pentaneamide], the EC50 amounted to 36 ng/mL (≈ 0.0587 µM).
Take `CC(C)CN(C[C@@H](O)[C@H](Cc1ccccc1)NC(=O)[C@H](CC(N)=O)NC(=O)c1ccc2ccccc2n1)S(=O)(=O)NC(C)(C)C` [Example 8, N-[3-[N^2-[N^1-(1,1-dimethylethyl)aminosulfonyl]-N^2-(2-methylpropyl)amino]-2R-hydroxy-1S-(phenylmethyl)propyl]-2S-[(2-quinolinylcarbonyl)amino]butanediamide]: the EC50 is 12 ng/mL (≈ 0.0187 µM).
